The target in one data set is H3R (Homo sapiens, UniProt Q9Y5N1). Nature of the data set: CRE luciferase reporter assay for H3R antagonistic activity. Format: cell-based. As to the method: Firstly, all the target compounds were screened at 5 μM and 50 μM. […] The detailed experimental operations refer to the previous paper.
(Reporter assays use an easily measured gene product as a stand-in for the process of interest.)

Data set [1] concerns maximal electroshock seizure (MES) model. Nature of the data set: Maximal electroshock seizure (MES) model. The data set is classed as in vivo. As to the method:
One of the two test models is the MES seizure model, another is the PTZ-induced seizure model. […] In addition, the administration of this dosage can minimize the impact of other possible side effects such as central inhibition and cardiac toxicity. […] In addition, the tested dose of VPA was 300 mg/kg. It could be seen that all animals in the control group experienced hindlimb stiffness after the electrical stimulation in the MES model. In the treated group, the definition of protection was the reduction or vanishing of the tonic hind limb extension (THLE) in mice. […] The neurological safety of the compounds 2h, 4a, and 4b was evaluated by the rotarod test. In the MES test, the definition of protection was the reduction or vanishing of the THLE in mice. In the PTZ test, the seizures were induced through the subcutaneous administration of PTZ (85 mg/kg). The antiseizure activities of the compounds in the PTZ test were evaluated by comparing the convulsion scores in mice between taking the compounds or not. VPA and PIT were used as positive drugs. To explore the anticonvulsive mechanism, compound 4a (10 mg/kg) was co-injected with RAMH (10 mg/kg). In addition, the THLE was recorded and compared with that of the mice treated by compound 4a alone. The detailed experimental operations in the MES, PTZ, and rotarod tests refer to our previous paper. All the animal experiments were carried out on 4-week-old KunMing male mice weighing from 20 to 25 g. The mice were housed collectively in polycarbonate cages in groups of 30, where they were maintained on a 12 h light/dark cycle in a temperature controlled (25 ± 2 °C) laboratory with free access to food and water. In the MES and PTZ models, seven animals were used in each group. In the rotarod test, three animals were used in each group. Each animal was used only once. All the experiments referring to animals were applied according to the Guide for the Care and Use of Laboratory Animals and were approved by the Medical Ethics Committee of Jinggangshan University, approval number: 220811002.
A general note: The maximal electroshock test induces tonic seizures with an electrical stimulus.

Data set [2] can be described thus: Rotarod test for neurotoxicity. Format: in vivo. The settings on record: mice; for Death of treated animals: 300 mg/kg; for Neurotoxicity: rotarod test, i.p., three animals per group. The protocol:
A rotarod test was carried out to estimate the neurological safety of compounds 2h, 4a, and 4b.
The neurological safety of the compounds 2h, 4a, and 4b was evaluated by the rotarod test. In the MES test, the definition of protection was the reduction or vanishing of the THLE in mice. In the PTZ test, the seizures were induced through the subcutaneous administration of PTZ (85 mg/kg). The antiseizure activities of the compounds in the PTZ test were evaluated by comparing the convulsion scores in mice between taking the compounds or not. VPA and PIT were used as positive drugs. To explore the anticonvulsive mechanism, compound 4a (10 mg/kg) was co-injected with RAMH (10 mg/kg). In addition, the THLE was recorded and compared with that of the mice treated by compound 4a alone. The detailed experimental operations in the MES, PTZ, and rotarod tests refer to our previous paper. All the animal experiments were carried out on 4-week-old KunMing male mice weighing from 20 to 25 g. The mice were housed collectively in polycarbonate cages in groups of 30, where they were maintained on a 12 h light/dark cycle in a temperature controlled (25 ± 2 °C) laboratory with free access to food and water. In the MES and PTZ models, seven animals were used in each group. In the rotarod test, three animals were used in each group. Each animal was used only once. All the experiments referring to animals were applied according to the Guide for the Care and Use of Laboratory Animals and were approved by the Medical Ethics Committee of Jinggangshan University, approval number: 220811002.
(In general: The rotarod test checks motor coordination on a turning rod.)

Data set [3] deals with maximal electroshock seizure (MES) model. Details: method as in PMID 33325568. The settings on record: administrated combined with H3R agonist RAMH; cited from earlier work.
Setting [4] is: mice, 10 mg/kg, i.p., compared to control group.
[5] abbreviates: mice, 3 mg/kg, compared to control (saline).
The mark [6] stands for this setting: mice, 10 mg/kg, i.p., compared to control group; 10 mg/kg.
Setting [7] is: mice, doses of 3, 10 and 30 mg/kg.

Several values for one entry are separate records, joined by “and”; a condition that tells them apart may be missing. Identical values can stand only once. Entries after “also recorded” stand apart in the source; their conditions may differ.

By IC50 is commonly meant the concentration that gives 50% inhibition. Higher therefore signals a need for much substance. As a reminder, the melting point is the temperature, or range, at which the solid turns liquid.

Sequence of H3R (Q9Y5N1 whole entry, species assumed): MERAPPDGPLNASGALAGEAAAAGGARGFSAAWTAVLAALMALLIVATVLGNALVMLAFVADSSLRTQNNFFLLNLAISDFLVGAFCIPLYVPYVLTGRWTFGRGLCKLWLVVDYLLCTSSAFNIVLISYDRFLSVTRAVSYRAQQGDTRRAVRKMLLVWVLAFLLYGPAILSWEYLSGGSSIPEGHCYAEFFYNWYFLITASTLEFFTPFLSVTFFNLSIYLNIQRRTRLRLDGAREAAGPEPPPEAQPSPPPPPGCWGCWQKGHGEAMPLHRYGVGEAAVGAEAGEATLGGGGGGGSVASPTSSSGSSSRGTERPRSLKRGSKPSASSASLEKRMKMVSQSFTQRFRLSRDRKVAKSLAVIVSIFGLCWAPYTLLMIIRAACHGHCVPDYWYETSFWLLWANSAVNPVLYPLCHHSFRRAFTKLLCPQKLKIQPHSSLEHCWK

Take `CCN(CC)CCCOc1ccc2c(c1)CCC(=O)N2` [Compound 2a, 6-(3-(Diethylamino)propoxy)-3,4-dihydroquinolin-2(1H)-one hydrochioride]: the melting point was 68 to 70 °C. Moreover, the midpoint of inhibition against H3R, the IC50, lay at 0.52 µM. The “Duration of tonic hind limb extension (THLE), protection in MES model” value (“Duration of tonic hind limb extension” below) in data set [1] (setting [4]) is listed as “no significant difference”.
`CCCN(CCC)CCCOc1ccc2c(c1)CCC(=O)N2.Cl` [Compound 2b, 6-(3-(Dipropylamino)propoxy)-3,4-dihydroquinolin-2(1H)-one hydrochloride]: the melting point lay within 57 to 59 °C. For the same compound, the IC50 against H3R was over 50 µM.
Compound `O=C1CCc2cc(OCCCN3CCCC3)ccc2N1` [Compound 2c, 6-(3-(Pyrrolidin-1-yl)propoxy)-3,4-dihydroquinolin-2(1H)-one hydrochioride] returned a melting point of 120 to 122 °C. This compound gave an IC50 on H3R of 0.47 µM. For the same compound, the “Duration of tonic hind limb extension” value in data set [1] (setting [4]) is given as “no significant difference”.
Regarding `O=C1CCc2cc(OCCCN3CCNCC3)ccc2N1` [Compound 2d, 6-(3-(Piperazin-1-yl)propoxy)-3,4-dihydroquinolin-2(1H)-one], the melting point lay within 150 to 151 °C. The IC50 against H3R was over 50 µM.
Consider `CN1CCN(CCCOc2ccc3c(c2)CCC(=O)N3)CC1` [Compound 2e, 6-(3-(4-Methylpiperazin-1-yl)propoxy)-3,4-dihydroquinolin-2(1H)-one], for which the melting point is 159 to 160 °C. In addition, at H3R, half-maximal inhibition (IC50) required 38.1 µM.
Consider `O=C1CCc2cc(OCCCN3CCN(c4ccccc4)CC3)ccc2N1` [Compound 2f, 6-(3-(4-Phenylpiperazin-1-yl)propoxy)-3,4-dihydroquinolin-2(1H)-one], for which the melting point was in the range of 199 to 201 °C. Also, the concentration for half-maximal inhibition (IC50) at H3R amounted to 25.6 µM.
The matching figures for `O=C1CCc2cc(OCCCN3CCOCC3)ccc2N1` [Compound 2g, 6-(3-(Morpholino)propoxy)-3,4-dihydroquinolin-2(1H)-one]: 146 to 147 °C and 46 µM.
On to `O=C1CCc2cc(OCCCN3CCCCC3)ccc2N1` [Compound 2h, 6-(3-(Piperidin-1-yl)propoxy)-3,4-dihydroquinolin-2(1H)-one], for which, at H3R, the IC50 worked out at 0.12 µM. Also, the “Protection in MES model at lowest dosage” value in data set [1] (setting [5]) is recorded as “no significant difference”. Further, the “Duration of tonic hind limb extension” value in data set [1] (setting [6]) is recorded as “decreased the duration of THLE significantly; also recorded: antiseizure activity”. Moreover, the “Dose dependence of protection in MES model” value (shortened to “Dose dependence of protection”) in data set [1] (setting [7]) is reported as “dose-dependent manner”. Moreover, the “Death of treated animals” value in data set [2] is “all animals”. In addition, the Neurotoxicity in data set [2] (10 mg/kg) was 0/3; in data set [2] (30 mg/kg), 0/3; in data set [2] (100 mg/kg, 100 mg/kg) it was “one mouse in three and 1/3”.
For `O=C1CCc2cc(OCCCN3CCC(c4ccccc4)CC3)ccc2N1` [Compound 2i, 6-(3-(4-Phenylpiperidin-1-yl)propoxy)-3,4-dihydroquinolin-2(1H)-one], the melting point was in the range of 174 to 176 °C. In addition, half-maximal inhibition at H3R (IC50) required 38.5 µM.
Regarding `O=C1CCc2cc(OCCN3CCCCC3)ccc2N1` [Compound 3a, 6-(2-(Piperidin-1-yl)ethoxy)-3,4-dihydroquinolin-2(1H)-one], the melting point lay in the range of 147 to 149 °C. For the same compound, the IC50 on H3R is 7.49 µM.
Turning to `O=C1CCc2cc(OCCCCN3CCCCC3)ccc2N1` [Compound 3b, 6-(4-(Piperidin-1-yl)butoxy)-3,4-dihydroquinolin-2(1H)-one], the melting point fell in the range of 150 to 151 °C. Moreover, inhibition at H3R was half-maximal at 2.88 µM (IC50).
`O=C1CCc2cc(OCCCCCN3CCCCC3)ccc2N1` [Compound 3c, 6-((5-(Piperidin-1-yl)pentyl)oxy)-3,4-dihydroquinolin-2(1H)-one] had a melting point of 150 to 151 °C. The compound also displayed an IC50 against H3R of over 50 µM.
As to `CCCN1C(=O)CCc2cc(OCCCN3CCCCC3)ccc21` [Compound 4a, 6-(3-(Piperidin-1-yl)propoxy)-1-propyl-3,4-dihydroquinolin-2(1H)-one], at H3R, the IC50 stood at 0.37 µM. Moreover, in data set [1] (setting [5]), the “Protection in MES model at lowest dosage” value is reported as “no significant difference”. In addition, the “Duration of THLE in MES model when combined with H3R agonist RAMH” value in data set [1] (mice, 10 mg/kg i.p., co-injected with RAMH 10 mg/kg i.p.) is “fully vanished; also recorded: cannot decrease the duration of THLE”. Moreover, in data set [1] (setting [6]), the “Duration of tonic hind limb extension” value was “decreased the duration of THLE significantly; also recorded: antiseizure activity”. Besides, the “Dose dependence of protection” value in data set [1] (setting [7]) is “dose-dependent manner”. In data set [2], the “Death of treated animals” value is given as “two-thirds of mice”. Besides, the Neurotoxicity in data set [2] (10 mg/kg) is 0/3; in data set [2] (30 mg/kg), 0/3; in data set [2] (100 mg/kg, 100 mg/kg) it was “no neurotoxicity and 0/3”.
Compound `CCCCCN1C(=O)CCc2cc(OCCCN3CCCCC3)ccc21` [Compound 4b, 1-Pentyl-6-(3-(piperidin-1-yl)propoxy)-3,4-dihydroquinolin-2(1H)-one] came in with a half-maximal inhibitory concentration (IC50) on H3R of 1.91 µM. Besides, in data set [1] (setting [5]), the “Protection in MES model at lowest dosage” value is “no significant difference”. In addition, the “Duration of tonic hind limb extension” value in data set [1] (setting [6]) was “decreased the duration of THLE significantly; also recorded: antiseizure activity”. Also, in data set [1] (setting [7]), the “Dose dependence of protection” value is recorded as “dose-dependent manner”. In data set [2], the “Death of treated animals” value was “two-thirds of mice”. Besides, the Neurotoxicity in data set [2] (10 mg/kg) was 0/3; in data set [2] (30 mg/kg), 0/3; in data set [2] (100 mg/kg, 100 mg/kg), “no neurotoxicity and 0/3”.
Turning to `Cc1nc(-c2ccc(OCCCN3CCCCC3)cc2)co1` [I], the “Antiseizure activity in MES test when combined with RAMH” value in data set [3] was “completely vanished”.

The values above are taken from article PMC10144301, “Antiseizure Properties of Histamine H3 Receptor Antagonists Belonging 3,4-Dihydroquinolin-2(1H)-Ones” (Molecules, 2023).
